# Experimental data reported in patent publication US20150328198A1, “METHODS OF TREATING METHICILLIN-RESISTANT STAPHYLOCOCCUS AUREUS (MRSA) USING PPAR-GAMMA AGONISTS” (priority 2014, published 2015).
# System: MRSA
# Assay: murine MRSA skin and soft tissue infection (SSTI) model
# Format: in vivo, mice
# Text: Peroxisome Proliferator Activator Receptor-γ (PPAR-γ) is a nuclear receptor that inhibits inflammation and redirects macrophages towards an M2 phenotype by driving Arg-1, Scd-1, SSAT and fatty acid synthesis gene expression. PPAR-γ is therefore involved in the development of adipocytes as well as M2-MΦs.
Structure (SMILES),"reduction of average time to healing (mouse, in vivo) [days]",beneficial effects of treatment in PPAR-γ-/- mice (mice lacking myeloid PPAR-γ),number of viable bacteria in wounds/abscesses (day 12),"resolution of MRSA SSTIs (mouse, in vivo)"
CCc1ccc(CCOc2ccc(CC3SC(=O)NC3=O)cc2)nc1 (centres unmarked) [Pioglitazone],~5,,,
CN(CCOc1ccc(CC2SC(=O)NC2=O)cc1)c1ccccn1 (centres unmarked) [Rosiglitazone],~5,no effect,,
O=C(Nc1ccccc1)c1cc([N+](=O)[O-])ccc1Cl [GW9662],,,greatly increased,non-resolving
